Source: article PMC6322304, “Phytohormone treatment induces generation of cryptic peptides with antimicrobial activity in the Moss Physcomitrella patens” (BMC Plant Biology, 2019)
Ends that are not written are not given here.

Tests used:
OPR3 gene = assay: qRT-PCR of pathogenesis-related gene in treated protonema; type: cell-based, Physcomitrella patens; conditions: protonema incubated 1 h; MeJA 50 μM to 1 mM, SA 10 μM to 1 mM (Figure S8)
Method: Protonemata of the moss P. patens subsp. patens (“Gransden 2004”, Freiburg) were grown in 200 mL liquid Knop medium with 500 mg/L ammonium tartrate under white light with a photon flux of 61 μmol/m^2•s under a 16-h photoperiod at 24°C. For mass spectrometry analysis, five-d-old protonema tissue was treated with 0.4 mM MeJA and incubated for 1 h. […] To analyze antimicrobial activity of secretome five-d-old- protonema tissue was treated with different concentration of MeJA. Treatment with cocktail of protease inhibitors was performed according to the dilution 1:200, as recommended by the manufacturer (P1860 Sigma Aldrich, USA). At least three independent biological replicates were used for each type of analysis. To test the gene expression induced by the peptides, five-d-old protonema tissue was treated with either mock solution or 1 μM peptide solution and harvested after 2, 4, 8 and 24 h later. […]
Total RNA from protonemata was isolated as previously described. Quality and quantity were evaluated using electrophoresis on agarose gel with ethidium bromide staining. Total RNA concentration of samples was precisely measured using the Quant-iT™ RNA Assay Kit, 5–100 ng on a Qubit 3.0 (Invitrogen, US) fluorometer. cDNA was synthesized using the MMLV RT kit (Evrogen, Russia) according to the manufacturer’s recommendations. […]

E. coli K-12 MG 1655 = type: cell-based, Escherichia coli; conditions: K-12, 20 h
Method: (§1) A serial dilution method in sterile 96 Well Collection Plates (Corning 3870) in liquid MHB medium was used to define the minimum inhibitory concentration (MIC) of the peptides against E. coli K-12 MG 1655 and B. subtilis 168 HT as previously described. Diluted peptide (50 μL) in MHB medium was added to each well at the appropriate concentration (128 to 0.25 μg/mL), along with 50 μL of bacterial suspension at a concentration of 10^6 CFU/mL of microbial cells. The experiment was carried out in three replicates. Liquid MHB medium without the addition of the peptide used as a negative control. The plates were incubated at 37°С for 20 h without mixing. The MIC of the peptides was assessed visually and by measuring the spectrophotometric absorbance at 570 nm to identify the concentration that inhibited the visible growth of bacteria.

B. subtilis 168 HT = type: cell-based, Bacillus subtilis; conditions: 20 h
Method: as §1

[1] = system: E. coli and B. subtilis bacteria; type: cell-based, Escherichia coli; Bacillus subtilis
Method: as §1

Compound | response of OPR3 transcription to hormone treatment (qRT-PCR) (OPR3 gene) | % inhibition, E. coli (E. coli K-12 MG 1655) | MIC, E. coli (E. coli K-12 MG 1655) | % inhibition, B. subtilis (B. subtilis 168 HT) | MIC, B. subtilis (B. subtilis 168 HT) | concentration at which bacterial growth was inhibited ([1]; on day 1 after inoculation, bacterium not named) | minimum inhibitory concentration (MIC) ([1]; bacterium not given, serial dilution with E. coli and B. subtilis)
CC/C=C\CC1C(=O)CCC1CC(=O)OC (centres unmarked) [MeJA, methyl jasmonate] | clear response |  |  |  |  |  | 
INIINAPLQGFKIA [INIINAPLQGFKIA] |  | >90% | 16 µg/mL | >90% | 32 µg/mL |  | 
KIKVAINGFGRIG [synthetic copy of a cellular moss peptide, fragment of glyceraldehyde-3-phosphate dehydrogenase (GAPDH)] |  |  |  |  |  | 128 µg/mL | 
LVQIGTKIVGVGRNYAAH [LVQIGTKIVGVGRNYAAH] |  | >90% | 64 µg/mL | >90% | 64 µg/mL |  | 64 µg/mL
